# Experimental data as given in US10759787B2, “Benzofuran derivative, preparation method thereof and use thereof in medicine” (Jiangsu Hengrui Medicine Co., Ltd., priority 2015, dated 2020).
# How the values were obtained:
# [1] = Pharmacokinetics assay in SD rats after intragastrical administration; type: in vivo; conditions: both sexes, Sprague-Dawley, rat, plasma, po, 5 mg/kg; for Vd/F: read-out: Apparent Distribution Volume Vz/F; for AUC: read-out: Area Under Curve AUC; for CL/F: read-out: Clearance CL/F; for half-life: read-out: Half-Life t1/2 (converted); for MRT: read-out: Mean Residence Time MRT; for Cmax: read-out: Plasma Conc. Cmax
# Method: Test Example 3. Pharmacokinetics Assay of the Compounds of Examples 1, 2, 3 and 9 of the Present Invention
# SD rats were used as test animals. The drug concentration in plasma at different time points was determined by LC/MS/MS after intragastrical administration of the compounds of Examples 1, 2, 3 and 9 to the rats. The pharmacokinetic behavior of the compounds of the present invention was studied and evaluated in rats.
# 16 healthy adult Sprague-Dawley (SD) rats, half male and half female, were purchased from SINO-BRITSH SIPPR/BK LAB. ANIMAL LTD., CO, with Certificate No.: SCXK (Shanghai) 2008-0016.
# The appropriate amount of each compound was weighed, and added with 0.5% CMC-Na (containing 1% Tween 80) to prepare a 1.0 mg/mL suspension by grinding.
# After an overnight fast, 16 SD rats were divided into 4 groups equally, half male and half female, and administered intragastrically the test compounds at an administration volume of 5 mL/kg.
# Blood (0.2 mL) was taken from the orbital sinus before administration and at 0.5, 1.0, 2.0, 4.0, 6.0, 8.0, 11.0, and 24.0 hours after administration. The samples were stored in heparinized tubes, and centrifuged for 10 minutes at 3,500 rpm to separate the blood plasma. The plasma samples were stored at −20° C.
# The plasma concentration of the test compounds in rat plasma after intragastric administration was determined by LC-MS/MS.
# Pharmacokinetic parameters of the compounds of Examples 1, 2, 3 and 9 of the present invention are shown below: […]
# Pfeiffer cells = test: In vitro anti-tumor cell growth assay (CellTiter-Glo), Pfeiffer; type: cell-based; conditions: Homo sapiens, 120 h; Pfeiffer cells (A677G mutant), 5 days; read-out: IC50 for inhibiting the growth activity of tumor cells (Pfeiffer) in vitro
# Method: (§1) Test Example 2. Assay for Determining In Vitro Anti-Tumor Cell Growth Activity of the Example Compounds of the Present Invention
# (§2) This method was used to determinate the inhibitory effect of the compounds of the present invention on the growth activity of tumor cells (Pfeiffer or WSU-DLCL2) in vitro. Pfeiffer cells carry A677G mutant, and WSU-DLCL2 cells carry Y641F mutant.
# (§3) The lymphoma suspension cell line (Pfeiffer or WSU-DLCL2) was cultured in a RPMI-1640 medium containing 10% inactivated Fetal Bovine Serum, 100 U/mL penicillin, and 100 μg/mL streptomycin, and incubated in an incubator with 5% carbon dioxide at 37° C. under a saturated humidity condition, and passaged every 3-4 days.
# (§4) A cell sudpension was prepared with a fresh cell medium, added to a 96-well cell culture plate at 8000 cells/well (Pfeiffer) or 2000 cells/well (WSU-DLCL2), and incubated in 5% carbon dioxide at 37° C. incubator overnight. On the day of the experiment, the EZH2 test compounds (final concentration: 20000, 2000, 200, 20, 2, 0.2 nM) were added into the experimental wells for 3 parallel wells per group. A control well with the medium alone but without cells was set up to obtain the background luminescent value. The cell culture plate was incubated in an incubator with 5% carbon dioxide at 37° C. for 5 days.
# (§5) After the compounds were applied to the cells for 5 days, the cell culture plate was placed at room temperature for 30 minutes, then a CellTiter-Glo reagent equal to the volume of cell culture medium was added to each well. The contents were mixed on a shaker for 10 minutes, and the […] signal values were recorded. The cell growth inhibition rate was calculated, and the formula was: cell growth inhibiton rate=[(negative control control−experimental group)/(negative control group−background luminescent value)]×100%. The IC50 values (half inhibition rate IC50, i.e., a drug concentration that is required for 50% cell growth inhibition rate) were calculated by software from the cell growth inhibiton rate and the corresponding concentration.
# EZH2-A677G = EZH2-A677G (Homo sapiens (Human), UniProt Q15910, A677G); test: EZH2-A677G mutant enzyme activity assay (HTRF); type: biochemical; conditions: read-out: IC50 for inhibiting the activity of enzyme EZH2-A677G
# Method: (§6) Histone H3 biotin labeling and S-adenosyl methionine were respectively diluted to 50 nM and 50 μM with a kinase buffer, then added to a 384-well plate at 4 μl/well. The test compound was diluted with a kinase buffer (it was diluted from the highest concentration 30 μM in 10 fold concentration gradient to 7 concentration points), then added to the 384-well microtiter plate at 4 μl/well. The plate was incubated at room temperature for 2 hours. Histone H3K27 Me3 monoclonal antibody and Streptavidin-XL665 were diluted to 30 nM and 500 nM by HTRF detection buffer, then added to the 384-well microplate at 10 µl/well and incubated for 1 hour. A well without an EZH2 enzyme and a compound was used as a negative control, and a well with an EZH2 enzyme but without a compound was used as a positive control. […] The compound logarithm concentration vs the inhibition percentage relative to the positive control well was plotted using GraphPad Prism, then the IC50 values were calculated.
# WSU-DLCL2 cells = test: In vitro anti-tumor cell growth assay (CellTiter-Glo), WSU-DLCL2; type: cell-based; conditions: Homo sapiens, WSUDLCL2, 120 h; WSU-DLCL2 cells (Y641F mutant), 5 days; read-out: IC50 for inhibiting the growth activity of tumor cells (WSU-DLCL2) in vitro
# Method: as §1, §2, §3, §4, §5
# EZH2-Y641F = EZH2-Y641F (Homo sapiens (Human), UniProt Q15910, Y641F); test: EZH2-Y641F mutant enzyme activity assay (HTRF); type: biochemical; conditions: read-out: IC50 for inhibiting the activity of enzyme EZH2-Y641F
# Method: as §6
# Chain of EZH2-A677G (Q15910 whole entry A677G): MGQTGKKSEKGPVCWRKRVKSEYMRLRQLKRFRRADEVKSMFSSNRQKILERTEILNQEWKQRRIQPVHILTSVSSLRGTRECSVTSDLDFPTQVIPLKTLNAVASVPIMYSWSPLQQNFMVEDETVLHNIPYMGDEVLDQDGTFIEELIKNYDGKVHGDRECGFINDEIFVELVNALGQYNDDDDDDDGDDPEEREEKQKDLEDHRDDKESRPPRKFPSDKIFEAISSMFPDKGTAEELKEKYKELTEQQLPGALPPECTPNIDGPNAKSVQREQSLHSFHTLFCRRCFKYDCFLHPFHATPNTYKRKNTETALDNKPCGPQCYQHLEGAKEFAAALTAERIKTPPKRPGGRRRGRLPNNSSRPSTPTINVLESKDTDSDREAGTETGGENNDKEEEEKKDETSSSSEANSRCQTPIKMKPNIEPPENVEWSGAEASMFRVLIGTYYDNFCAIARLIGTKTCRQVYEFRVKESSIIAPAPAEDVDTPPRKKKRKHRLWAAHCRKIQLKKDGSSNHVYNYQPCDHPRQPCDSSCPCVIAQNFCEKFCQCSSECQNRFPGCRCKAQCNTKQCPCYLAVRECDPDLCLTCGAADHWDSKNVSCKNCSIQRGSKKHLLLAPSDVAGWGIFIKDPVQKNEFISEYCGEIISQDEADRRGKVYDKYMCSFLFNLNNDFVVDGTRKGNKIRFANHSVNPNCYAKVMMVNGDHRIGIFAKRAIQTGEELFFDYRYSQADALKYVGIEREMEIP
# Chain of EZH2-A677G (O75530 whole entry partner): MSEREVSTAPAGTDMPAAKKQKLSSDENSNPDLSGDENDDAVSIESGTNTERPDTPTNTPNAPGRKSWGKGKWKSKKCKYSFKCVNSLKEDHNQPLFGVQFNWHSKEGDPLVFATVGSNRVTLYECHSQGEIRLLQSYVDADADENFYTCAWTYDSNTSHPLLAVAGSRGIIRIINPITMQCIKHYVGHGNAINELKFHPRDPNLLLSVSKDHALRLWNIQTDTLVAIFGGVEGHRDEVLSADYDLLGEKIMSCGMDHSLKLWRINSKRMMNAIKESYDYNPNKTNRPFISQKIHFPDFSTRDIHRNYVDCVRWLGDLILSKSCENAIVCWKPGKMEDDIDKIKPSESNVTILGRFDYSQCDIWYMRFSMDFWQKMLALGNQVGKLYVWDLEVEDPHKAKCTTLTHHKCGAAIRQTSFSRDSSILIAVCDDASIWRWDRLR
# Chain of EZH2-A677G (Q15022 whole entry partner): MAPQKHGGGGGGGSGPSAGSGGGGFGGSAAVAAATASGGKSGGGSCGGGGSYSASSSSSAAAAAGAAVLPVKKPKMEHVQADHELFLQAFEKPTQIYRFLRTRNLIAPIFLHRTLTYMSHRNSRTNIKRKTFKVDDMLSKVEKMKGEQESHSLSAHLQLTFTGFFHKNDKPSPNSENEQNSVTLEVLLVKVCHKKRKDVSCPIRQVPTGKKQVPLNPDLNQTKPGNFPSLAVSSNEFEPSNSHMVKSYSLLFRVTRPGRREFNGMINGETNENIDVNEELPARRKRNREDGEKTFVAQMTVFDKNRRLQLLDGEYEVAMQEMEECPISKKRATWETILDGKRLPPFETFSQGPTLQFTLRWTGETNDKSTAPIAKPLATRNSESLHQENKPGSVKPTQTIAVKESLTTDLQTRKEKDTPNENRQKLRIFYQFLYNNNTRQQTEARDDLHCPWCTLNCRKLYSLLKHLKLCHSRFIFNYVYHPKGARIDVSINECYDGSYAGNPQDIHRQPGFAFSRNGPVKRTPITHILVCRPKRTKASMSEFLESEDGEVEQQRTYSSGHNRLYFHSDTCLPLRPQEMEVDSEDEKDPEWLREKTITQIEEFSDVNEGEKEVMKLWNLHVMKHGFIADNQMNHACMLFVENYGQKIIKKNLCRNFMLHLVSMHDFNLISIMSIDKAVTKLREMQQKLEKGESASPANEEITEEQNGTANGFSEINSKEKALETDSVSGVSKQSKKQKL
# Chain of EZH2-A677G (Q09028 whole entry partner): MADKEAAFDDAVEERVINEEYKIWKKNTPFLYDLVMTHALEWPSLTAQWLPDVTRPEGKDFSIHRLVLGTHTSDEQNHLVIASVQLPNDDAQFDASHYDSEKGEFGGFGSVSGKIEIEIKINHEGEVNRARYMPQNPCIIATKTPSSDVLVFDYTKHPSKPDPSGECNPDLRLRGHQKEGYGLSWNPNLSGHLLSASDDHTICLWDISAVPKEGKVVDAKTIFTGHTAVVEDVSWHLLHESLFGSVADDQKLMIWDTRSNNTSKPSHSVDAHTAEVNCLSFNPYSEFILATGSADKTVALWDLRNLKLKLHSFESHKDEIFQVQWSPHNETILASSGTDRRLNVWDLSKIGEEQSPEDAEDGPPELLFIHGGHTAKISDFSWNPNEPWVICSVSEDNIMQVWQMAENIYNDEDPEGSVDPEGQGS
# Chain of EZH2-A677G (Q6ZN18 whole entry partner): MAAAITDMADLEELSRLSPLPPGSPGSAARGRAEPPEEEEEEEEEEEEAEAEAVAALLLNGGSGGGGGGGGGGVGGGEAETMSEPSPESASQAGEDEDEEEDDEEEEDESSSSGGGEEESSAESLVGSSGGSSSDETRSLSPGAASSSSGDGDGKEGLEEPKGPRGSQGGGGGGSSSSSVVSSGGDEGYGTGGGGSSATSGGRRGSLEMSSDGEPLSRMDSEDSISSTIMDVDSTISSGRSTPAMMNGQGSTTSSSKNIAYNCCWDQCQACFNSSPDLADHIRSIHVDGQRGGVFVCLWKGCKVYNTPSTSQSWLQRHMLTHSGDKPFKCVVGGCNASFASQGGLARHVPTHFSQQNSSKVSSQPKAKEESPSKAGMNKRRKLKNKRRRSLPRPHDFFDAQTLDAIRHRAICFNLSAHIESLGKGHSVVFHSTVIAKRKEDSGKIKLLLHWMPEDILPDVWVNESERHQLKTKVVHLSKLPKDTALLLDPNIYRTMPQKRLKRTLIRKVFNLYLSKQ
# Chain of EZH2-Y641F (Q15910 whole entry Y641F): as the sequence (Q15910 whole entry A677G) above, with Y641F, G677A counted along it
# Chain of EZH2-Y641F (O75530 whole entry partner): as the sequence (O75530 whole entry partner) above
# Chain of EZH2-Y641F (Q15022 whole entry partner): as the sequence (Q15022 whole entry partner) above
# Chain of EZH2-Y641F (Q09028 whole entry partner): as the sequence (Q09028 whole entry partner) above
# Chain of EZH2-Y641F (Q6ZN18 whole entry partner): as the sequence (Q6ZN18 whole entry partner) above
structure (smiles),measurement,setting,value
"CCc1c(N(CC)C2CCOCC2)cc2oc(CN3CCCCC3)cc2c1C(=O)NCc1c(OC)cc(C)[nH]c1=O [Example 1, 5-Ethyl-6-(ethyl(tetrahydro-2H-pyran-4-yl)amino)-N-((4-methoxy-6-methyl-2-oxo-1,2-dihydropyridin-3-yl)methyl)-2-(piperidin-1-ylmethyl)benzofuran-4-carboxamide]",Vd/F,[1],28.1 ± 18.4 L/kg
same,AUC,[1],246 ± 127 ng·h/mL
same,CL/F,[1],390 ± 201 mL/min/kg
same,half-life,[1],0.8 ± 0.13 h
same,MRT,[1],2.37 ± 0.18 h
same,Cmax,[1],88.9 ± 77.1 ng/mL
same,IC50,Pfeiffer cells,2 nM
same,IC50,EZH2-A677G,6.4 nM
"CCc1c(N(CC)C2CCOCC2)cc2oc(CN3CCCCC3)cc2c1C(=O)NCc1c(C)cc(C)[nH]c1=O [Example 2, N-((4,6-Dimethyl-2-oxo-1,2-dihydropyridin-3-yl)methyl)-5-ethyl-6-(ethyl(tetrahydro-2H-pyran-4-yl)amino)-2-(piperidin-1-ylmethyl)benzofuran-4-carboxamide]",Vd/F,[1],41.4 ± 7.91 L/kg
same,AUC,[1],378 ng·h/mL
same,CL/F,[1],222 ± 23 mL/min/kg
same,half-life,[1],2.2 ± 0.68 h
same,MRT,[1],3.18 ± 0.3 h
same,Cmax,[1],105 ± 44.5 ng/mL
same,IC50,Pfeiffer cells,13 nM
same,IC50,WSU-DLCL2 cells,39 nM
"CCc1cc(C)[nH]c(=O)c1CNC(=O)c1c(CC)c(N(CC)C2CCOCC2)cc2oc(CN3CCCCC3)cc12 [Example 3, 5-Ethyl-6-(ethyl(tetrahydro-2H-pyran-4-yl)amino)-N-((4-ethyl-6-methyl-2-oxo-1,2-dihydropyridin-3-yl)methyl)-2-(piperidin-1-ylmethyl)benzofuran-4-carboxamide]",Vd/F,[1],40.5 ± 7.97 L/kg
same,AUC,[1],487 ± 12 ng·h/mL
same,CL/F,[1],171 ± 4.4 mL/min/kg
same,half-life,[1],2.73 ± 0.53 h
same,MRT,[1],4.65 ± 0.184 h
same,Cmax,[1],91.5 ± 5.6 ng/mL
same,IC50,Pfeiffer cells,4 nM
same,IC50,EZH2-A677G,38 nM
"CCN(c1cc2occc2c(C(=O)NCc2c(OC)cc(C)[nH]c2=O)c1C)C1CCOCC1 [Example 18, 6-(Ethyl(tetrahydro-2H-pyran-4-yl)amino)-N-((4-methoxy-6-methyl-2-oxo-1,2-dihydropyridin-3-yl)methyl)-5-methylbenzofuran-4-carboxamide]",IC50,Pfeiffer cells,20 nM
same,IC50,EZH2-Y641F,2.3 nM
same,IC50,WSU-DLCL2 cells,113 nM
same,IC50,EZH2-A677G,4 nM
"CCN(c1cc2oc(C)cc2c(C(=O)NCc2c(OC)cc(C)[nH]c2=O)c1C)C1CCOCC1 [Example 19, 6-(Ethyl(tetrahydro-2H-pyran-4-yl)amino)-N-((4-methoxy-6-methyl-2-oxo-1,2-dihydropyridin-3-yl)methyl)-2,5-dimethylbenzofuran-4-carboxamide]",IC50,Pfeiffer cells,14 nM
same,IC50,EZH2-Y641F,2.8 nM
same,IC50,WSU-DLCL2 cells,232 nM
same,IC50,EZH2-A677G,2.9 nM
"CCN(c1cc2occ(C)c2c(C(=O)NCc2c(OC)cc(C)[nH]c2=O)c1C)C1CCOCC1 [Example 20, 6-(Ethyl(tetrahydro-2H-pyran-4-yl)amino)-N-((4-methoxy-6-methyl-2-oxo-1,2-dihydropyridin-3-yl)methyl)-3,5-dimethylbenzofuran-4-carboxamide]",IC50,EZH2-Y641F,5.6 nM
same,IC50,EZH2-A677G,5.9 nM
"COc1cc(C)[nH]c(=O)c1CNC(=O)c1c(C)c(N(C)C2CCOCC2)cc2occc12 [Example 23, N-((4-Methoxy-6-methyl-2-oxo-1,2-dihydropyridin-3-yl)methyl)-5-methyl-6-(methyl(tetrahydro-2H-pyran-4-yl)amino)benzofuran-4-carboxamide]",IC50,Pfeiffer cells,68 nM
same,IC50,EZH2-Y641F,0.3 nM
same,IC50,EZH2-A677G,4.8 nM
"CCN(c1cc2occc2c(C(=O)NCc2c(OC)cc(C)[nH]c2=O)c1C)[C@H]1CC[C@H](N(C)C)CC1 [Example 24, 6-(((1r,4r)-4-(Dimethylamino)cyclohexyl)(ethyl)amino)-N-((4-methoxy-6-methyl-2-oxo-1,2-dihydropyridin-3-yl)methyl)-5-methylbenzofuran-4-carboxamide]",IC50,Pfeiffer cells,19 nM
same,IC50,EZH2-Y641F,3.4 nM
same,IC50,WSU-DLCL2 cells,45 nM
"CCN(c1cc2occc2c(C(=O)NCc2c(OC)cc(C)[nH]c2=O)c1C)C1CCN(S(C)(=O)=O)CC1 [Example 25, 6-(Ethyl(1-(methylsulfonyl)piperidin-4-yl)amino)-N-((4-methoxy-6-methyl-2-oxo-1,2-dihydropyridin-3-yl)methyl)-5-methylbenzofuran-4-carboxamide]",IC50,Pfeiffer cells,15 nM
same,IC50,EZH2-Y641F,3.2 nM
same,IC50,WSU-DLCL2 cells,160 nM
same,IC50,EZH2-A677G,0.9 nM
"CCN(c1cc2occc2c(C(=O)NCc2c(OC)cc(C)[nH]c2=O)c1C)C1CCN(C(C)=O)CC1 [Example 26, 6-((1-Acetylpiperidin-4-yl)(ethyl)amino)-N-((4-methoxy-6-methyl-2-oxo-1,2-dihydropyridin-3-yl)methyl)-5-methylbenzofuran-4-carboxamide]",IC50,EZH2-Y641F,2.8 nM
same,IC50,EZH2-A677G,2.9 nM
"CCN(c1cc2oc(C#N)cc2c(C(=O)NCc2c(OC)cc(C)[nH]c2=O)c1C)C1CCOCC1 [Example 30, 2-Cyano-6-(ethyl(tetrahydro-2H-pyran-4-yl)amino)-N-((4-methoxy-6-methyl-2-oxo-1,2-dihydropyridin-3-yl)methyl)-5-methylbenzofuran-4-carboxamide]",IC50,Pfeiffer cells,17 nM
same,IC50,EZH2-A677G,0.8 nM
"CCc1c(N(CC)C2CCC(F)(F)CC2)cc2occc2c1C(=O)NCc1c(OC)cc(C)[nH]c1=O [Example 31, 6-((4,4-Difluorocyclohexyl)(ethyl)amino)-5-ethyl-N-((4-methoxy-6-methyl-2-oxo-1,2-dihydropyridin-3-yl)methyl)benzofuran-4-carboxamide]",IC50,Pfeiffer cells,69 nM
same,IC50,EZH2-Y641F,4.5 nM
same,IC50,EZH2-A677G,2.7 nM
"CCc1c(N(CC)C2CC(F)(F)C2)cc2occc2c1C(=O)NCc1c(OC)cc(C)[nH]c1=O [Example 32, 6-((3,3-Difluorocyclobutyl)(ethyl)amino)-5-ethyl-N-((4-methoxy-6-methyl-2-oxo-1,2-di hydropyridin-3-yl)methyl)benzofuran-4-carboxamide]",IC50,Pfeiffer cells,18 nM
same,IC50,WSU-DLCL2 cells,190 nM
same,IC50,EZH2-A677G,4 nM
"CCc1c(N(CC)C2CCS(=O)(=O)CC2)cc2occc2c1C(=O)NCc1c(OC)cc(C)[nH]c1=O [Example 33, 6-((1,1-Dioxidotetrahydro-2H-thiopyran-4-yl)(ethyl)amino)-5-ethyl-N-((4-methoxy-6-methyl-2-oxo-1,2-dihydropyridin-3-yl)methyl)benzofuran-4-carboxamide]",IC50,Pfeiffer cells,22 nM
same,IC50,EZH2-Y641F,0.8 nM
same,IC50,EZH2-A677G,2.7 nM
